From article PMC6882492, “Synthesis and biological evaluation of novel thienopyrimidine derivatives as diacylglycerol acyltransferase 1 (DGAT-1) inhibitors” (Journal of Enzyme Inhibition and Medicinal Chemistry, 2019) come the findings set out here.

The target of one series is T1, hDGAT1 (Homo sapiens, UniProt O75907).
T1 sequence (O75907 1-488): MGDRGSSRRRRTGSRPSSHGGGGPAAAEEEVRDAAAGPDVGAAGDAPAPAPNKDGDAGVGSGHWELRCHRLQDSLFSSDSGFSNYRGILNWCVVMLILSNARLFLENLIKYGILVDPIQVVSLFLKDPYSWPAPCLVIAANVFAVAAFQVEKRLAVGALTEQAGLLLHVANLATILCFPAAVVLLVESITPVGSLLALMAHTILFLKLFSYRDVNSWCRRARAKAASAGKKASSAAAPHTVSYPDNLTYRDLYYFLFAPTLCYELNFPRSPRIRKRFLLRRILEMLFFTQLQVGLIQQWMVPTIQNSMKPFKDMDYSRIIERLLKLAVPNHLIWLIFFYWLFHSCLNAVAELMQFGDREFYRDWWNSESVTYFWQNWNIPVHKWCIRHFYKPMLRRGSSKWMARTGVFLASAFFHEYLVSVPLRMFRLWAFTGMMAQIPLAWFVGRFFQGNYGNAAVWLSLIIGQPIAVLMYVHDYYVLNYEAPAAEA
The experiment in a line: Enzymatic assay hDGAT1. It counts as biochemical. The source says: (§1) ACATs have sequence homology to DGAT-1 and play essential roles in cholesterol homeostasis. 17b was not explored in the enzymatic assays due to its poor pharmacokinetic profile.

The target of another series is T2, hDGAT2 (Homo sapiens, UniProt Q96PD7).
T2 sequence (Q96PD7 1-388): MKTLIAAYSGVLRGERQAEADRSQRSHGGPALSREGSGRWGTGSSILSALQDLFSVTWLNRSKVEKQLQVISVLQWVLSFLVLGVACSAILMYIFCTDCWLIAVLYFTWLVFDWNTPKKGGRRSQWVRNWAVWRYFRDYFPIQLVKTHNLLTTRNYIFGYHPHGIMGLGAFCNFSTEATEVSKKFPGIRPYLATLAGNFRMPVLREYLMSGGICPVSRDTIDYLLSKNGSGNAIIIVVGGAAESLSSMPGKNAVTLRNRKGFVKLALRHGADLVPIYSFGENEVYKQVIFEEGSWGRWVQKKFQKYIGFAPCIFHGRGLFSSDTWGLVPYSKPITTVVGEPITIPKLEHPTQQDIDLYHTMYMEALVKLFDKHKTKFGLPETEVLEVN
The experiment in a line: Enzymatic assay hDGAT2. In kind it is biochemical.
Text: as §1

The target of series [1] is T3, human recombinant DGAT1 enzyme expressed in insect cells (SF9 cells) (Homo sapiens, UniProt O75907).
T3 construct: made in house; host or cells: SF9 insect cells (microsomal membrane fraction)
T3 sequence (O75907 1-488): T1 sequence (O75907 1-488)
Description: DGAT-1 inhibition assay (IC50), SF9 microsomes. It counts as biochemical. The settings on record: SF9 insect cells expressing human DGAT-1. The protocol:
The activity of DGAT-1 inhibitors in vitro was evaluated by using a human recombinant DGAT1 enzyme expressed in insect cells (SF9 cells). SF9 cells were homogenised by washing them with DPBS (Dulbecco’s phosphate-buffered saline) and then suspending cell pellets with a tris buffer (250 mM sucrose; 10 mM Tris-HCl [pH 7.4]; proteinase inhibitor). The resulting mixture was centrifugally separated at 10,000 × g for 30 min to remove the cell debris remaining in the lower layer thereof, and was centrifugally separated at 100,000 × g for 60 min to obtain a microsomal membrane. Further, membrane fractions were resuspended by the tris buffer, and then stored at -80 °C.
The activity of DGAT1 was measured according to the reported method. Specifically, 0.0001 – 10 μΜ (final concentration, FC) of the test compounds were cultured at room temperature (25 °C) for 15 min with a […] of SF9 microsomal protein solution and 100 mM of MgCl2 solution, and were then further cultured at room temperature (25 °C) for 30 min after the addition of 100 μΜ (FC in 12.5% EtOH) of 1,2-dioleyl-sn-glycerol and 30 μΜ (final conc.) of [14]C-oleyl coenzyme A. The reaction was completed by the addition of 300 μL of a mixed solution of 2-propanol/heptane (7:1), and radioactive triglyceride was separated from an organic solvent layer by using 200 μL of heptane and 200 μL of a 0.1 M carbonate buffer (pH 9.5). The amount of triglyceride was measured by liquid scintillography (Perkin Elmer, USA) after mixing with an organic solvent and an equivalent amount of scintillation solvent (MicroScint-O, Perkin Elmer, USA). The effects of inhibiting DGAT1 were calculated as percent in comparison with a control material.
The activities of synthesised compounds were evaluated using SF9 insect cells expressing human DGAT-1[22]. A potent DGAT-1 inhibitor, LCQ-908 (2 or pradigastat) was used as a positive control. […] The calculated lowest energy conformation model of 14c provided that the distance between the terminal carboxylic acid and NH of urea was over 16 Å, which may result in reduced activity. […]

A further series deals with T4, hACAT1 (Homo sapiens, UniProt P35610).
T4 sequence (P35610 1-550): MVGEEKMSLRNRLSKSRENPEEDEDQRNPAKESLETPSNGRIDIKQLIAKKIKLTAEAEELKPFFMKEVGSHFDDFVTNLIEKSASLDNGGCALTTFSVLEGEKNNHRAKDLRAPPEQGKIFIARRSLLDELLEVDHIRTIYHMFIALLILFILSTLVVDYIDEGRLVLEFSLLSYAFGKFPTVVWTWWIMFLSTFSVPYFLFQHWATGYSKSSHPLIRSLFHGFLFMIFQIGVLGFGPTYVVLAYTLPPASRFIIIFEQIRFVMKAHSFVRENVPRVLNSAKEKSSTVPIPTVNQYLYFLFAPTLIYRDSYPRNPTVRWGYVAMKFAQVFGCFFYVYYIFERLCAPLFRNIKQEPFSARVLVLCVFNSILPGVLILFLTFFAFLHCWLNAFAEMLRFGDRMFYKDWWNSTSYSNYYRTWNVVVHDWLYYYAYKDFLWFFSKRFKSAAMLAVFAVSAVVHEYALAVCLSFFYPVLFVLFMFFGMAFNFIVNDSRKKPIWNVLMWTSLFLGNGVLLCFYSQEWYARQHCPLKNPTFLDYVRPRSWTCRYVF
Description: Enzymatic assay hACAT1. It counts as biochemical.
Text: as §1

The next series concerns the target T5, hACAT2 (Homo sapiens, UniProt O75908).
T5 sequence (O75908 1-522): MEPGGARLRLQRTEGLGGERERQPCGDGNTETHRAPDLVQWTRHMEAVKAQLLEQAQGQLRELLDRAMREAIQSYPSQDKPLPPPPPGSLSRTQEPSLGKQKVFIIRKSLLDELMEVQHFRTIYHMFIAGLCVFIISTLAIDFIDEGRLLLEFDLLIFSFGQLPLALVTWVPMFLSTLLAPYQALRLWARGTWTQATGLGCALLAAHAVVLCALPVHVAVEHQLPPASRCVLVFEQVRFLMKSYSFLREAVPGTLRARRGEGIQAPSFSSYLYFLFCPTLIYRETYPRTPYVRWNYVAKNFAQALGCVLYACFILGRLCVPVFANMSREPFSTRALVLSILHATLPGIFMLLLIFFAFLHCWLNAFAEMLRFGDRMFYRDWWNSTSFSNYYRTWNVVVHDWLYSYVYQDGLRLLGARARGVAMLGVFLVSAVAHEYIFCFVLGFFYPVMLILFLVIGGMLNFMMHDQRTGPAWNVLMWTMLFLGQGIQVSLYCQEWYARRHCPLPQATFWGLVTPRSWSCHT
The experiment in a line: Enzymatic assay hACAT2. It counts as biochemical.
Text: as §1

Series [2] can be described thus: Tissue distribution in mice. In kind it is in vivo. The settings on record: ICR mice, 30 mg/kg oral, n = 3. As to the method: In addition, tissue distribution of 17a was investigated. 17a was orally administered to mice at 30 mg/kg, and 2 was administrated as a positive control (Figure 5). […] Significant activity of 17a in the OLTT appeared to result from high concentration in the small intestine, even though bioavailability of 17a was not great in mice.
Figure 5. Tissue distribution of 17a in mice. 17a and 2 were orally administered to ICR mice at 30 mg/kg (n = 3). (a) AUC values of 17a and 2 in indicated tissues. […] Data represent mean value. (b) Tissue-to-plasma (T/P) ratio of 17a and 2. S.I.: small intestine, L.I.: large intestine.

Series [3] in a line: Pharmacokinetic profile in ICR mice. The note with it: mouse, in vivo.

Structures are written as SMILES.

Turning to `O=C(O)C[C@H]1CC[C@H](c2ccc(-c3ccc(Nc4ccc(C(F)(F)F)nc4)cn3)cc2)CC1` [Compound 2, pradigastat, reference compound], the IC50 (as a rule, the midpoint of a concentration-inhibition curve) against hDGAT1 is 57 nM; at hDGAT2, greater than 10000 nM; in series [1], 157 nM; against hACAT1, greater than 10000 nM; against hACAT2 it was greater than 10000 nM. For the same compound, the “Tissue distribution (concentration levels in tissues)” value in series [2] was “much high concentrations in the liver and large intestine”.
Consider `O=C([O-])C[C@H]1CC[C@H](c2csc3c(-c4ccc(NC(=O)Nc5cccc(Cl)c5)cc4)ncnc32)CC1.[Na+]` [Compound 17b, Sodium trans-2–(4–(4-(4-(3–(3-chlorophenyl)ureido)phenyl)thieno[3,2-d]pyrimidin-7-yl)cyclohexyl)acetate], for which the concentration for half-maximal inhibition (IC50) in series [1] was determined as 89 nM. Besides, the bioavailability (usually the share of a dose that reaches the circulation, judged against a reference dose that is usually intravenous) in series [3] (oral 10 mg/kg vs iv 3 mg/kg) turned out to be 0.7%. For the same compound, in series [3] (oral 10 mg/kg, n = 3), the concentration peaked (Cmax) at 74.8 ng/mL and the half-life (as a rule, the time in which the quantity being followed falls by half) is 5.2 h. Moreover, in series [3] (oral 10 mg/kg, n = 3, read-out: AUC 0∼24), the area under the curve (AUC) – broadly, the area under the concentration-time curve, a measure of exposure – was determined as 234 ng·h/mL.
